# Columns and labels:
# Test in all cases: relative viability (nuclei count vs DMSO), 5 days (fraction); higher = more cells survive
# [1] = compound: CNC(=O)c1cc(Oc2ccc(NC(=O)Nc3ccc(Cl)c(C(F)(F)F)c3)cc2)ccn1 [Sorafenib] + CS(=O)(=O)CCNCc1ccc(-c2ccc3ncnc(Nc4ccc(OCc5cccc(F)c5)c(Cl)c4)c3c2)o1 [Lapatinib] (partner 2 µM)
# Outline: (§1)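 One day after seeding in 1536-well plates, lung cancer cell lines were dosed by pin tool. Dosing was either single-drug or a fixed anchor-drug dose plus five library-drug doses (not always all listed) in √10 steps. After 5 days, nuclei were stained in one fix-and-stain step and counted on 4× images, and relative viability is the nuclei count of treated wells over that of vehicle wells, given as the median of duplicate plates.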
# [2] = compound: CNC(=O)c1cc(Oc2ccc(NC(=O)Nc3ccc(Cl)c(C(F)(F)F)c3)cc2)ccn1 [Sorafenib] + O=C(CCCCCCC(=O)Nc1ccccc1)NO [Vorinostat] (partner 1 µM)
# Outline: as §1
# [3] = compound: CNC(=O)c1cc(Oc2ccc(NC(=O)Nc3ccc(Cl)c(C(F)(F)F)c3)cc2)ccn1 [Sorafenib] + C[C@@H](Oc1cc(-c2cnn(C3CCNCC3)c2)cnc1N)c1c(Cl)ccc(F)c1Cl [Crizotinib] (partner 1 µM)
# Outline: as §1
# [4] = compound: CNC(=O)c1cc(Oc2ccc(NC(=O)Nc3ccc(Cl)c(C(F)(F)F)c3)cc2)ccn1 [Sorafenib] + CCNC(=O)c1noc(-c2cc(C(C)C)c(O)cc2O)c1-c1ccc(CN2CCOCC2)cc1 [Luminespib] (partner 0.01 µM)
# Outline: as §1
# [5] = compound: CNC(=O)c1cc(Oc2ccc(NC(=O)Nc3ccc(Cl)c(C(F)(F)F)c3)cc2)ccn1 [Sorafenib]
# Outline: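 Lung cancer cell lines in 1536-well plates were exposed by pinning to five library-drug doses (not always all listed) √10 apart, following an overnight hold at 37 °C. MetaXpress counted Hoechst-stained nuclei from 4× images taken after 5 days without medium change. Viability is the median ratio of treated-well to vehicle-well nuclei across plates. Plates required control CV below 25% and at least one doubling.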
Cell Line,relative viability ([1]; first compound 0.08 µM),relative viability ([1]; first compound 0.253 µM),relative viability ([1]; first compound 2.53 µM),relative viability ([1]; first compound 8 µM),relative viability ([2]; first compound 0.08 µM),relative viability ([2]; first compound 0.253 µM),relative viability ([2]; first compound 2.53 µM),relative viability ([2]; first compound 8 µM),relative viability ([3]; first compound 0.08 µM),relative viability ([3]; first compound 0.253 µM),relative viability ([3]; first compound 2.53 µM),relative viability ([3]; first compound 8 µM),relative viability ([4]; first compound 0.08 µM),relative viability ([4]; first compound 0.253 µM),relative viability ([4]; first compound 2.53 µM),relative viability ([4]; first compound 8 µM),relative viability ([5]; 0.253 µM),relative viability ([5]; 2.53 µM),relative viability ([5]; 8 µM),relative viability ([5]; 0.08 µM)
NCI-H1734,1.06,0.991,0.951,0.663,0.936,0.708,0.752,0.631,0.746,0.625,0.66,0.426,0.235,0.131,0.186,0.161,0.97,0.909,0.618,–
NCI-H1755,1.03,0.999,0.994,0.869,0.81,0.702,0.843,0.549,0.917,0.817,0.874,0.615,0.67,0.399,0.371,0.404,–,0.973,0.936,1.04
NCI-H1915,0.932,0.879,0.943,0.951,0.444,0.364,0.355,0.582,0.892,0.786,0.829,0.907,0.848,0.678,–,0.751,0.894,0.934,0.945,0.956
NCI-H1944,0.881,0.763,0.912,0.796,0.539,0.497,0.626,0.417,1.12,1,1.08,0.912,0.697,0.634,–,0.552,0.927,0.932,0.734,0.923
NCI-H1975,1.04,0.835,1.02,0.448,0.788,0.787,0.72,0.436,0.988,1.03,0.985,0.466,0.426,0.201,0.24,0.153,0.889,1.1,1.03,1.05
NCI-H1993,0.893,0.782,–,0.78,0.973,0.726,1.1,0.633,0.988,1,1.08,0.851,0.921,0.489,0.999,0.543,0.968,1.19,0.812,1.09
NCI-H2009,0.884,0.812,0.968,0.47,0.703,0.666,0.699,0.719,0.972,0.921,0.915,0.603,1.03,0.868,0.915,0.476,0.786,0.924,0.731,0.951
NCI-H2023,–,0.738,0.82,0.244,0.954,0.571,0.599,0.339,0.66,–,0.713,0.357,0.828,0.761,0.826,0.136,0.89,1.07,0.425,1.15
NCI-H2085,–,0.761,0.858,0.717,0.852,0.795,1.01,0.78,0.938,1.01,0.965,0.717,0.483,0.414,0.424,0.448,0.972,1.04,0.895,1.06
NCI-H2087,0.958,0.711,1.06,0.611,0.615,0.545,0.474,0.209,0.83,0.746,0.784,0.308,0.192,0.183,0.236,0.123,–,0.927,0.4,1.12
NCI-H2126,0.766,0.642,0.808,0.792,0.88,0.747,0.828,0.799,0.998,0.984,1.09,0.962,0.981,–,0.882,0.864,0.997,1.07,1,1.02
NCI-H2170,0.279,0.294,0.349,0.39,0.842,0.665,0.856,0.576,1.34,1.08,1.14,1.05,0.527,0.707,0.706,0.592,0.875,0.943,0.782,1
NCI-H2228,1.23,0.936,0.985,0.627,0.672,0.598,0.265,0.315,0.474,0.511,0.727,0.262,0.181,0.178,0.154,0.105,0.736,0.941,0.714,1.17
NCI-H2347,0.945,0.83,0.965,0.968,0.694,0.543,0.524,0.52,0.796,0.559,0.491,0.525,0.625,0.433,0.763,0.62,0.964,1.01,0.944,1.11
NCI-H2405,1.26,0.967,1.09,0.784,1.09,0.801,1.09,0.706,0.884,0.767,–,0.76,0.868,0.705,0.79,0.446,0.89,1.06,0.74,1.12
NCI-H3122,1.05,0.987,1.02,1.01,1.03,0.932,–,0.846,0.29,0.317,0.326,0.293,0.11,0.105,0.0728,0.044,1.01,0.977,0.881,0.994
